These results are taken from patent US9550775B2, “Substituted triazolopyridines and methods of use thereof” (GENENTECH, INC., priority 2013, dated 2017).

Usually IC50 stands for the concentration at which inhibition is half-maximal.

The test addresses hNav1.7 (Homo sapiens (Human), UniProt Q15858). Description: Tritiated sulfonamide competitive binding to membranes from cells expressing hNav1.7 and the β1 subunit.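 Note: displacement of the tritiated ligand from recombinant cell membranes, read by liquid scintillation counting of filter-bound radioactivity, nonspecific binding defined with 1 µM unlabelled compound.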 The following applies: 100 pM [3H]compound, 18 h, room temperature; inactivated state of NaV1.7 membrane binding; read-out: NaV1.7 Ligand Binding Assay (IC50).

Sequence of hNav1.7 (Q15858 other isoform, or with tags, fused parts or gaps): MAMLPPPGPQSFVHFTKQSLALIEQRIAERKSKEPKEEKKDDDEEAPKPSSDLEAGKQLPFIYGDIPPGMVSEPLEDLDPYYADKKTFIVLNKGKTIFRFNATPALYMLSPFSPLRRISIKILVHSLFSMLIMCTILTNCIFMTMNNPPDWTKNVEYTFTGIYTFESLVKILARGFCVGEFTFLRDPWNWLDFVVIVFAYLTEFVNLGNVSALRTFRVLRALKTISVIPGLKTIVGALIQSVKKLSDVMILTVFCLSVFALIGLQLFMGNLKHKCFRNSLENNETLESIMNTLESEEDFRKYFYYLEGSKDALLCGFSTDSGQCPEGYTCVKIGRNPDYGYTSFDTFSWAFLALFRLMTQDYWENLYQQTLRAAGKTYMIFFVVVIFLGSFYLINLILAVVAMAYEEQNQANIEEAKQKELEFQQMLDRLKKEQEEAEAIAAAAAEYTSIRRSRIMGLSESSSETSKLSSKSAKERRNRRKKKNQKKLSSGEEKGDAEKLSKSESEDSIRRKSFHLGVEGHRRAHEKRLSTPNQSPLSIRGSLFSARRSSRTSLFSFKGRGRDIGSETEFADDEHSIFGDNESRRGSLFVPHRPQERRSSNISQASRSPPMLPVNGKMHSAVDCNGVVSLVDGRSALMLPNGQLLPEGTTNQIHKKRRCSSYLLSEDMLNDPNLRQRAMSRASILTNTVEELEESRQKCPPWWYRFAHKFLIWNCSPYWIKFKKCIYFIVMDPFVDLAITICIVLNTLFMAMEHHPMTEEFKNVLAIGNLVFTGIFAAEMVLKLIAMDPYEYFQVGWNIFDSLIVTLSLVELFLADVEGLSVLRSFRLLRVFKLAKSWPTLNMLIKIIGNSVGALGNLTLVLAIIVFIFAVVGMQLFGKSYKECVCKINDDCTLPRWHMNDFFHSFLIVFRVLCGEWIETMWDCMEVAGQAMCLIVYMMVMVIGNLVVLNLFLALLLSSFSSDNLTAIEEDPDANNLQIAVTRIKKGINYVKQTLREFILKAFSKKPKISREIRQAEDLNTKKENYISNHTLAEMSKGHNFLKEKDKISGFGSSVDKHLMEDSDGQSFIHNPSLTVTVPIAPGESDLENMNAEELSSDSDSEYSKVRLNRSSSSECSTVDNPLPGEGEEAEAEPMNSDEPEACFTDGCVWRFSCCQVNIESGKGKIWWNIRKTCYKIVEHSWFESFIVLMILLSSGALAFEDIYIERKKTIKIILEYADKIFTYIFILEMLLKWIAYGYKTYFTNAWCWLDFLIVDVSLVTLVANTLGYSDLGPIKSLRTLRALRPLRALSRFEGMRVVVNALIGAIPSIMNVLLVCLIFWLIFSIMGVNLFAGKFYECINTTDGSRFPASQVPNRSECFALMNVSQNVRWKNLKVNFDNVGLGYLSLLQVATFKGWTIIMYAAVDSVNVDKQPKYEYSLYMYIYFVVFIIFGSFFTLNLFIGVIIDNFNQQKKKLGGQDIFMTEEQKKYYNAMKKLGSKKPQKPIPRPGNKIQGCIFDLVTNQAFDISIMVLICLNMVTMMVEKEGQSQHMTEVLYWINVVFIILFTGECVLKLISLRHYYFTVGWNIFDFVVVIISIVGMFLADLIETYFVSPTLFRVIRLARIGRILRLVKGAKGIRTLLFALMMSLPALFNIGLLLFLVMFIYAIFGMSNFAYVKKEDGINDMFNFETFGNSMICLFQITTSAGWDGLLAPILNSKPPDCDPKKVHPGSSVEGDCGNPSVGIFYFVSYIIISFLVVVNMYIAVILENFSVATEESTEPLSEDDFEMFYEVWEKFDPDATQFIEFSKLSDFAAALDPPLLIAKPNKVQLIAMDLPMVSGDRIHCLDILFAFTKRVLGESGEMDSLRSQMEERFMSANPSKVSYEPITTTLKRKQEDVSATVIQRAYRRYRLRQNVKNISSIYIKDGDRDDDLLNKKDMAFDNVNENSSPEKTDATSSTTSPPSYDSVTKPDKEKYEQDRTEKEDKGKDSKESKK
Sequence of hNav1.7 (Q07699 19-218 partner): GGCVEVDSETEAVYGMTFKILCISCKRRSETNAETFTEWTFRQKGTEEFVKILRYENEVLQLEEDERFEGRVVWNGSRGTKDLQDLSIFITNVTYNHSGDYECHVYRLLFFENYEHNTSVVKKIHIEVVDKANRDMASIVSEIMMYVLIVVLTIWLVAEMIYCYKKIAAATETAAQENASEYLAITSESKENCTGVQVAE

As for `CCc1cn2c(NS(=O)(=O)N3CC(F)C3)nnc2cc1OCC12CC3CC(CC(C3)C1)C2` [Example 70, N-(7-((3r,5r,7r)-adamantan-1-ylmethoxy)-6-ethyl-[1,2,4]triazolo[4,3-a]pyridin-3-yl)-3-fluoroazetidine-1-sulfonamide], the half-maximal inhibitory concentration (IC50) turned out to be 140 nM.
Next, `CC1(COc2cc3nnc(NS(=O)(=O)C4CC4)n3cc2C2CC2)CCC(F)(F)CC1` [Example 53, N-(6-cyclopropyl-7-((4,4-difluoro-1-methylcyclohexyl)methoxy)-[1,2,4]triazolo[4,3-a]pyridin-3-yl)cyclopropanesulfonamide]: 67.4 nM.
Next, `C=Cc1cn2c(NS(C)(=O)=O)nnc2cc1OCC1(C)CCCCC1` [Example 7, N-(7-((1-methylcyclohexyl)methoxy)-6-vinyl-[1,2,4]-triazolo[4,3-a]pyridin-3-yl)methanesulfonamide]: 65.3 nM; `CC1(C)[C@H]2CC[C@H](COc3cc4nnc(NS(C)(=O)=O)n4cc3C3CC3)[C@@H]1C2` [Example 83]: 3 nM; `O=S(=O)(Nc1nnc2cc(OCCC34CC5CC(CC(C5)C3)C4)c(C3CC3)cn12)C1CC1` [Example 22]: 7.35 nM.
In the case of `O=S(=O)(Nc1nnc2cc(CN3CCC(Oc4cc(Cl)cc(Cl)c4)CC3)c(C3CC3)cn12)C1CC1` [Example 124, N-(6-cyclopropyl-7-((4-(3,5-dichlorophenoxy)piperidin-1-yl)methyl)-[1,2,4]triazolo[4,3-a]pyridin-3-yl)cyclopropanesulfonamide], the IC50 was found to be 320 nM.
Consider `CS(=O)(=O)Nc1nnc2cc(OC[C@H]3CC[C@H](C(F)(F)F)CC3)c(C3CC3)cn12` [Example 68, N-(6-cyclopropyl-7-(((trans)-4-(trifluoromethyl)cyclohexyl)methoxy)-[1,2,4]triazolo[4,3-a]pyridin-3-yl)methanesulfonamide], for which the half-maximal inhibitory concentration (IC50) is 23 nM.
Next, `C[C@@H](c1cc(Cl)cc(Cl)c1)N1CCC(COc2cc3nnc(NS(=O)(=O)C4CC4)n3cc2C2CC2)CC1` [Example 121]: 12 nM; `C[C@H](c1cc(Cl)cc(Cl)c1)N1CCC(COc2cc3nnc(NS(C)(=O)=O)n3cc2C2CC2)CC1` [Example 119, (R)—N-(6-cyclopropyl-7-((1-(1-(3,5-dichlorophenyl)ethyl)piperidin-4-yl)methoxy)-[1,2,4]triazolo[4,3-a]pyridin-3-yl)methanesulfonamide]: 23 nM.
Next, `CS(=O)(=O)Nc1nnc2cc(OCC3CCCCC3)c(Br)cn12` [Example 61, N-(6-bromo-7-(cyclohexylmethoxy)-[1,2,4]triazolo[4,3-a]pyridin-3-yl)methanesulfonamide]: 90 nM.
For `CC1(COc2cc3nnc(NS(=O)(=O)C4CC4)n3cc2C2CC2)CCC2(CC1)CC2` [Example 114, N-(6-cyclopropyl-7-((6-methylspiro[2.5]octan-6-yl)methoxy)-[1,2,4]triazolo[4,3-a]pyridin-3-yl)cyclopropanesulfonamide] the value was 8 nM; for `CC12CC3(C)CC(C)(C1)CC(COc1cc4nnc(NS(C)(=O)=O)n4cc1C1CC1)(C2)C3` [Example 122, N-(6-cyclopropyl-7-((3,5,7-trimethyladamantan-1-yl)methoxy)-[1,2,4]triazolo[4,3-a]pyridin-3-yl)methanesulfonamide], 2 nM.
With `O=S(=O)(Nc1nnc2cc(OCC34CC5CC(CC(C5)C3)C4)c(C3CC3)cn12)N1CCC1` [Example 127, N-(7-(adamantan-1-ylmethoxy)-6-cyclopropyl-[1,2,4]triazolo[4,3-a]pyridin-3-yl)azetidine-1-sulfonamide], the IC50 stood at 9 nM.
Next, `CS(=O)(=O)Nc1nnc2cc(OCC3CCCCC3)c(Br)cn12` [Example 6]: 90.3 nM; `C[C@@H](c1cc(Cl)cc(Cl)c1)N1CCC(C)(COc2cc3nnc(NS(C)(=O)=O)n3cc2C2CC2)CC1` [Example 117, (S)—N-(6-cyclopropyl-7-((1-(1-(3,5-dichlorophenyl)ethyl)-4-methylpiperidin-4-yl)methoxy)-[1,2,4]triazolo[4,3-a]pyridin-3-yl)methanesulfonamide]: 13 nM.
Next, `C=C(C)c1cn2c(NS(C)(=O)=O)nnc2cc1OCC12CC3CC(CC(C3)C1)C2` [Example 63, N-(7-((3r,5r,7r)-adamantan-1-ylmethoxy)-6-(prop-1-en-2-yl)-[1,2,4]triazolopyridin-3-yl)methanesulfonamide]: 51 nM.
Next, `C[C@H](c1cc(Cl)cc(Cl)c1)N1CCC(C)(COc2cc3nnc(NS(C)(=O)=O)n3cc2C2CC2)CC1` [Example 118, (R)—N-(6-cyclopropyl-7-((1-(1-(3,5-dichlorophenyl)ethyl)-4-methylpiperidin-4-yl)methoxy)-[1,2,4]triazolo[4,3-a]pyridin-3-yl)methanesulfonamide]: 14 nM; `Cc1cc(Cl)cc(OCc2cc3nnc(NS(=O)(=O)C4CC4)n3cc2C2CC2)c1` [Example 103, N-(7-((3-chloro-5-methylphenoxy)methyl)-6-cyclopropyl-[1,2,4]triazolo[4,3-a]pyridin-3-yl)cyclopropanesulfonamide]: 6 nM; `CS(=O)(=O)Nc1nnc2cc(OCC3(C(F)(F)F)CCCC3)c(C3CC3)cn12` [Example 92, N-(6-cyclopropyl-7-((1-(trifluoromethyl)cyclopentyl)methoxy)-[1,2,4]triazolo[4,3-a]pyridin-3-yl)methanesulfonamide]: 45 nM.
On to `CC1(S(=O)(=O)Nc2nnc3cc(COc4cc(Cl)cc(Cl)c4)c(C4CC4)cn23)CC1` [Example 50, N-(6-cyclopropyl-7-((3,5-dichlorophenoxy)methyl)-[1,2,4]-triazolo[4,3-a]pyridin-3-yl)-1-methylcyclopropane-1-sulfonamide], for which the IC50 is 4.87 nM.
For `CC1(C)C2CC[C@]1(C)[C@H](Oc1cc3nnc(NS(C)(=O)=O)n3cc1C1CC1)C2` (stereo in doubt) [Example 86] the value was 260 nM; for `CC1(C)C2CCC1(C)[C@H](Oc1cc3nnc(NS(C)(=O)=O)n3cc1C1CC1)C2` (stereo in doubt) [Example 31, N-(6-cyclopropyl-7-(((1S,2R,4R)-1,7,7-trimethylbicyclo-[2.2.1]heptan-2-yl)oxy)-[1,2,4]triazolo[4,3-a]pyridin-3-yl)methanesulfonamide], 260 nM.
Next, `Cc1cc(Cl)cc(OCc2cc3nnc(NS(C)(=O)=O)n3cc2C2CC2)c1` [Example 102, N-(7-((3-chloro-5-methylphenoxy)methyl)-6-cyclopropyl-[1,2,4]triazolo[4,3-a]pyridin-3-yl)methanesulfonamide]: 7 nM.
For `O=S(=O)(Nc1nnc2cc(OC3C4CC5CC(C4)CC3C5)c(C3CC3)cn12)C1CC1` (stereo not shown) [Example 79, N-(7-(adamantan-2-yloxy)-6-cyclopropyl-[1,2,4]triazolo-[4,3-a]pyridin-3-yl)cyclopropanesulfonamide] the value was 66 nM; for `O=S(=O)(Nc1nnc2cc(O[C@@H]3CCCN(Cc4ccc(F)cc4Cl)C3)c(C3CC3)cn12)C1CC1` [Example 113, (R)—N-(7-((1-(2-chloro-4-fluorobenzyl)piperidin-3-yl)oxy)-6-cyclopropyl-[1,2,4]triazolo[4,3-a]pyridin-3-yl)cyclopropanesulfonamide], 34 nM; for `CC1(C)[C@H]2CC[C@H](COc3cc4nnc(NS(=O)(=O)N5CCC5)n4cc3C3CC3)[C@@H]1C2` [Example 30], 6.75 nM.
With `O=S(=O)(Nc1nnc2cc(COc3ccc(Cl)c(Cl)c3)c(C3CC3)cn12)C1CC1` [Example 94, N-(6-cyclopropyl-7-((3,4-dichlorophenoxy)methyl)-[1,2,4]-triazolo[4,3-a]pyridin-3-yl)cyclopropanesulfonamide], the IC50 was 7 nM.
Next, `Cc1cc(Cl)cc(OCc2cc3nnc(NS(=O)(=O)C4CC4)n3cc2C2CC2)c1` [Example 48, N-(7-((3-chloro-5-methylphenoxy)methyl)-6-cyclopropyl-[1,2,4]triazolo[4,3-a]pyridin-3-yl)cyclopropanesulfonamide]: 6.33 nM.
Regarding `CCc1cn2c(NS(=O)(=O)N3CCC3)nnc2cc1OCC12CC3CC(CC(C3)C1)C2` [Example 126, N-(7-(adamantan-1-ylmethoxy)-6-ethyl-[1,2,4]triazolo[4,3-a]pyridin-3-yl)azetidine-1-sulfonamide], the half-inhibitory concentration (IC50) was found to be 31 nM.
Regarding `O=S(=O)(Nc1nnc2cc(OC3CCC4(CCCCC4)CC3)c(C3CC3)cn12)C1CC1` [Example 35, N-(6-cyclopropyl-7-(spiro[5.5]undecan-3-yloxy)-[1,2,4]triazolo-[4,3-a]pyridin-3-yl)cyclopropanesulfonamide], the IC50 was 51.3 nM.
Next, `O=S(=O)(Nc1nnc2cc(COc3cc(Cl)cc(OC(F)(F)F)c3)c(C3CC3)cn12)C1CC1` [Example 42, N-(7-((3-chloro-5-(trifluoromethoxy)phenoxy)methyl)-6-cyclopropyl-[1,2,4]triazolo[4,3-a]pyridin-3-yl)cyclopropanesulfonamide]: 2.81 nM.
For `CS(=O)(=O)Nc1nnc2cc(OCC3CC4C5CCC(C5)C4C3)c(C3CC3)cn12` [Example 80, N-(6-cyclopropyl-7-(((2s,3aR,4S,7R,7aS)-octahydro-1H-4,7-methanoinden-2-yl)methoxy)-[1,2,4]triazolo[4,3-a]pyridin-3-yl)methanesulfonamide] the value was 5 nM.
Next, `CC1(COc2cc3nnc(NS(=O)(=O)C4CC4)n3cc2C2CC2)CCC(F)(F)CC1` [Example 108, N-(6-cyclopropyl-7-((4,4-difluoro-1-methylcyclohexyl)methoxy)-[1,2,4]triazolo[4,3-a]pyridin-3-yl)cyclopropanesulfonamide]: 67 nM; `CS(=O)(=O)Nc1nnc2cc(COc3cc(Cl)cc(OC(F)(F)F)c3)c(C3CC3)cn12` [Example 98, N-(7-((3-chloro-5-(trifluoromethoxy)phenoxy)methyl)-6-cyclopropyl-[1,2,4]triazolo[4,3-a]pyridin-3-yl)methanesulfonamide]: 3 nM.
